Measurements: patent US8173645B2 (Takeda San Diego, Inc., priority 2007, dated 2012)

Molecular target: T1, glucokinase (GK), residues 12-465 of the human enzyme (Homo sapiens, UniProt P35557)
T1 construct: I.D. No. 1 corresponds to residues 12-465 of glucokinase; made in house; host or cells: E. coli DH10b-Tlr
T1 sequence (P35557 with tags, fused parts or gaps isoform P35557-2): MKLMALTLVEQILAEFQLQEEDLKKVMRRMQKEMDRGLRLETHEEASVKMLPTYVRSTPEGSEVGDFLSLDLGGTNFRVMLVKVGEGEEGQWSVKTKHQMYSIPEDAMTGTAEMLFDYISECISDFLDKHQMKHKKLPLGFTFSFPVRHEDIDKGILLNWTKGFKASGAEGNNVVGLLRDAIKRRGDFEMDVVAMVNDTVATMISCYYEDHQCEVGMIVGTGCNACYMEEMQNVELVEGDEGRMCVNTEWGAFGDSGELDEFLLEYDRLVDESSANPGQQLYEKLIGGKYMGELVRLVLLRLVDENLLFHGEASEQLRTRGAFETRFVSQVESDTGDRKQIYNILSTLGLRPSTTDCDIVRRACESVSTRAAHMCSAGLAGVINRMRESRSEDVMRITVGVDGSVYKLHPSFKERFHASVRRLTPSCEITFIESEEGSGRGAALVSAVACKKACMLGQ
Experiment: Enzymatic glucokinase activity assay (KinaseGlo luminescence, ATP consumption)
Format: biochemical
Details: 5 μM ATP, 5 mM Glucose; for EC50: GK activation, Kact = concentration giving 50% of the maximal increase in GK activity, read-out: pKact; for Emax: read-out: % ACTmax
Excerpt: The activity of compounds as glucokinase activators may be assayed in vitro, in vivo or in a cell line. Provided below is an enzymatic glucokinase activity assay.
Purified glucokinase may be obtained as follows. DNA encoding residues 12-465 of the full-length sequence of the human enzyme may be amplified by PCR and cloned into the HindIII and EcoRI sites of pFLAG-CTC (Sigma). SEQ. I.D. No. 1 corresponds to residues 12-465 of glucokinase.
The expression of recombinant glucokinase protein may be carried out by transformation and growth of DH10b-Tlr E. coli cells incorporating the (pFLAG-CTC) plasmid in LB media. Protein expression can be induced in this system by the addition of IPTG to the culture medium.
Recombinant protein may be isolated from cellular extracts by passage over Sepharose Q Fast Flow resin (Pharmacia). This partially purified GK extract may then be further purified by a second passage over Poros HQ 10 (Applied Biosystems). The purity of GK may be determined on denaturing SDS-PAGE gel. Purified GK may then be concentrated to a final concentration of 20.0 mg/ml. After flash freezing in liquid nitrogen, the proteins can be stored at −78° C. in a buffer containing 25 mM TRIS-HCl pH 7.6, 50 mM NaCl, and 0.5 mM TCEP.
The activation properties of compounds for GK may be determined using a black 384-well-plate format under the following reaction conditions: 25 mM Hepes pH 7.2, 25 mM NaCl, 10 mM MgCl2, 0.01% Brij35, 1 mM DTT, 5 μM ATP, 5 mM Glucose 2% DMSO. The amount of ATP consumed may be determined quantitatively by addition of equal volume of luciferase reagent (luciferase+beetle luciferin—KinaseGlo Luminescent Kinase Assay kit from Promega). The luminescence intensity may be measured by using the Analyst HT from LJL Biosystems.
The assay reaction may be initiated as follows: 4 μl of substrate mixture (12.5 μM ATP and 12.5 mM Glucose) was added to each well of the plate, followed by the addition of 2 μl of activator (2 fold serial dilutions for 11 data points for each activator) containing 10% DMSO. 4 μL of 1.25 nM GK solution may be added to initiate the reaction. The reaction mixture may then be incubated at room temperature for 60 min, and quenched and developed by addition of 10 μL of luciferase reagent. Luminescence intensities of the resulting reaction mixtures may be measured after a 10 min incubation at room temperature. The luminescence intensity may be measured by using the Analyst HT from LJL Biosystems.
pKact and % ACTmax values may be calculated by non-linear curve fitting of the compound concentrations and luminescence intensities to a standard inhibition/activation equation.

[1] = calculated maximal gain in GK enzyme activity at a saturating concentration of the compound

| EC50 [µM] | Emax [1] [%] | % ACTmax [1] | Structure (SMILES) |
| --- | --- | --- | --- |
| 1.58 to 2.51 | ≤ 74 |  | O=C(Nc1nccs1)[C@H](CC1CCCCC1)N1CCN(S(=O)(=O)c2ccc(Oc3ccccc3)nc2)CC1=O [Example 209, (S)-3-cyclohexyl-2-(2-oxo-4-(6-phenoxypyridin-3-ylsulfonyl)piperazin-1-yl)-N-(thiazol-2-yl)propanamide] |
| 0.794 to 1.26 | 97.1 to 107 |  | O=C(Nc1nccs1)[C@H](CC1CCCCC1)N1CCN(S(=O)(=O)c2cccc3nsnc23)CC1=O [Example 171, (S)-2-(4-(benzo[c][1,2,5]thiadiazol-4-ylsulfonyl)-2-oxopiperazin-1-yl)-3-cyclohexyl-N-(thiazol-2-yl)propanamide] |
| 1.58 to 2.51 | ≤ 74 |  | O=C(Nc1nccs1)[C@H](CC1CCCCC1)N1CCN(S(=O)(=O)c2ccc(-c3ccno3)s2)CC1=O [Example 174, (S)-3-cyclohexyl-2-(4-(5-(isoxazol-5-yl)thiophen-2-ylsulfonyl)-2-oxopiperazin-1-yl)-N-(thiazol-2-yl)propanamide] |
| ≤ 0.631 | 74.1 to 97 |  | O=C(Nc1nccs1)[C@H](CC1CCCCC1)N1CCN(S(=O)(=O)c2ccc(Oc3ccccn3)cc2)CC1=O [Example 207, (S)-3-cyclohexyl-2-(2-oxo-4-(4-(pyridin-2-yloxy)phenylsulfonyl)piperazin-1-yl)-N-(thiazol-2-yl)propanamide] |
| 0.794 to 1.26 | ≥ 119 |  | O=C(Nc1nccs1)[C@H](CC1CCCCC1)N1CCN(S(=O)(=O)c2ccc(F)c(F)c2F)CC1=O [Example 183, (S)-3-cyclohexyl-2-(2-oxo-4-(2,3,4-trifluorophenylsulfonyl)piperazin-1-yl)-N-(thiazol-2-yl)propanamide] |
| ≤ 0.631 | 108 to 119 |  | O=C(Nc1nccs1)[C@H](CC1CCCCC1)N1CCN(S(=O)(=O)c2ccc(Br)s2)CC1=O [Example 203, (S)-2-(4-(5-bromothiophen-2-ylsulfonyl)-2-oxopiperazin-1-yl)-3-cyclohexyl-N-(thiazol-2-yl)propanamide] |
| ≤ 0.631 | 108 to 119 |  | O=C(Nc1nccs1)[C@H](CC1CCCCC1)N1CCN(S(=O)(=O)N2CCCC2)CC1=O [Example 229, (S)-3-cyclohexyl-2-(2-oxo-4-(pyrrolidin-1-ylsulfonyl)piperazin-1-yl)-N-(thiazol-2-yl)propanamide] |
| 1.58 to 2.51 | ≤ 74 |  | O=C(Nc1nccs1)[C@H](CC1CCCCC1)N1CCN(S(=O)(=O)c2cnc(Cl)c(Br)c2)CC1=O [Example 217, (S)-2-(4-(5-bromo-6-chloropyridin-3-ylsulfonyl)-2-oxopiperazin-1-yl)-3-cyclohexyl-N-(thiazol-2-yl)propanamide] |
| ≤ 0.631 | 74.1 to 97 |  | Cc1ccc([N+](=O)[O-])cc1S(=O)(=O)N1CCN([C@@H](CC2CCCCC2)C(=O)Nc2nccs2)C(=O)C1 [Example 199, (S)-3-cyclohexyl-2-(4-(2-methyl-5-nitrophenylsulfonyl)-2-oxopiperazin-1-yl)-N-(thiazol-2-yl)propanamide] |

Continued, compound first:

| Structure (SMILES) | EC50 [µM] | Emax [1] [%] | % ACTmax [1] |
| --- | --- | --- | --- |
| O=C(Nc1nccs1)[C@H](CC1CCCCC1)N1CCN(C(=S)NCCN2CCOCC2)CC1=O [Example 117, (S)-3-cyclohexyl-2-(4-(2-morpholinoethylcarbamothioyl)-2-oxopiperazin-1-yl)-N-(thiazol-2-yl)propanamide] | 1.58 to 2.51 | 97.1 to 107 |  |
| O=C(Nc1nccs1)[C@H](CC1CCCCC1)N1CCN(S(=O)(=O)c2ccc(-c3nsc(Cl)n3)s2)CC1=O [Example 165, (S)-2-(4-(5-(5-chloro-1,2,4-thiadiazol-3-yl)thiophen-2-ylsulfonyl)-2-oxopiperazin-1-yl)-3-cyclohexyl-N-(thiazol-2-yl)propanamide] | 0.794 to 1.26 | ≤ 74 |  |
| Cc1ccc2sc(S(=O)(=O)N3CCN([C@@H](CC4CCCCC4)C(=O)Nc4nccs4)C(=O)C3)cc2c1 [Example 107, (S)-3-cyclohexyl-2-(4-(5-methylbenzo[b]thiophen-2-ylsulfonyl)-2-oxopiperazin-1-yl)-N-(thiazol-2-yl)propanamide] | 0.794 to 1.26 | ≤ 74 |  |
| O=C(Nc1nccs1)[C@H](CC1CCCCC1)N1CCN(C(=O)Nc2ccc(OCc3ccccc3)cc2)CC1=O [Example 146, (S)-N-(4-(benzyloxy)phenyl)-4-(3-cyclohexyl-1-oxo-1-(thiazol-2-ylamino)propan-2-yl)-3-oxopiperazine-1-carboxamide] | ≥ 3.16 | ≤ 74 |  |
| CC(C)Oc1ccc(S(=O)(=O)N2CCN([C@@H](CC3CCCCC3)C(=O)Nc3nccs3)C(=O)C2)cc1 [Example 101, (S)-3-cyclohexyl-2-(4-(4-isopropoxyphenylsulfonyl)-2-oxopiperazin-1-yl)-N-(thiazol-2-yl)propanamide] | ≤ 0.631 | ≤ 74 |  |
| O=C(Nc1nccs1)[C@H](CC1CCCCC1)N1CCN(C(=S)NCc2ccco2)CC1=O [Example 115, (S)-3-cyclohexyl-2-(4-(furan-2-ylmethylcarbamothioyl)-2-oxopiperazin-1-yl)-N-(thiazol-2-yl)propanamide] | 0.794 to 1.26 | 97.1 to 107 |  |
| O=C(Nc1nccs1)[C@H](CC1CCCCC1)N1CCN(S(=O)(=O)c2cc(Cl)ccc2Cl)CC1=O [Example 56, (S)-3-cyclohexyl-2-(4-(2,5-dichlorophenylsulfonyl)-2-oxopiperazin-1-yl)-N-(thiazol-2-yl)propanamide] | 0.794 to 1.26 | 108 to 119 |  |
| O=C(Nc1nccs1)[C@H](CC1CCCCC1)N1CCN(S(=O)(=O)c2ccc3ncsc3c2)CC1=O [Example 97, (S)-2-(4-(benzo[d]thiazol-6-ylsulfonyl)-2-oxopiperazin-1-yl)-3-cyclohexyl-N-(thiazol-2-yl)propanamide] | 0.794 to 1.26 | 97.1 to 107 |  |
| O=C(Nc1nccs1)[C@H](CC1CCCCC1)N1CCN(S(=O)(=O)C2CC2)CC1=O [Example 2, (S)-3-cyclohexyl-2-(4-(cyclopropylsulfonyl)-2-oxopiperazin-1-yl)-N-(thiazol-2-yl)propanamide] | ≤ 0.631 |  | 107.5-119.0% |
| O=C(Nc1ncc(Cl)s1)[C@H](CC1CCOCC1)N1CCN(S(=O)(=O)c2ccc(F)cc2)CC1=O [Example 34, (S)-N-(5-chlorothiazol-2-yl)-2-(4-(4-fluorophenylsulfonyl)-2-oxopiperazin-1-yl)-3-(tetrahydro-2H-pyran-4-yl)propanamide] | 1.58 to 2.51 | 97.1 to 107 |  |
| O=C(Nc1ncc(Cl)s1)[C@@H](CC1CCOCC1)N1CCN(S(=O)(=O)C2CC2)CC1=O [Example 25, (R)-N-(5-chlorothiazol-2-yl)-2-(4-(cyclopropylsulfonyl)-2-oxopiperazin-1-yl)-3-(tetrahydro-2H-pyran-4-yl)propanamide] | ≥ 3.16 | ≤ 74 |  |
| O=C(Nc1nccs1)[C@H](CC1CCCCC1)N1CCN(S(=O)(=O)c2ccc(C(F)(F)F)cc2)CC1=O [Example 55, (S)-3-cyclohexyl-2-(2-oxo-4-(4-(trifluoromethyl)phenylsulfonyl)piperazin-1-yl)N-(thiazol-2-yl)propanamide] | 0.794 to 1.26 | ≤ 74 |  |
| COc1ccc(NC(=S)N2CCN([C@@H](CC3CCCCC3)C(=O)Nc3nccs3)C(=O)C2)cc1 [Example 86, (S)-3-cyclohexyl-2-(4-(4-methoxyphenylcarbamothioyl)-2-oxopiperazin-1-yl)-N-(thiazol-2-yl)propanamide] | ≥ 3.16 | 97.1 to 107 |  |
